By pEC50 is commonly meant −log10 of the EC50, conventionally taken in molar units. Read a low pEC50 as a large EC50.

For the test, the target named is T1, human ferroportin (Homo sapiens, UniProt Q9NP59).
T1 construct: luciferase reporter (read with the Nano-Glo Luciferase Assay System); expressed in transfected cells; host or cells: CHO cells, stably transfected, expression induced with doxycycline
T1 sequence (Q9NP59 1-571): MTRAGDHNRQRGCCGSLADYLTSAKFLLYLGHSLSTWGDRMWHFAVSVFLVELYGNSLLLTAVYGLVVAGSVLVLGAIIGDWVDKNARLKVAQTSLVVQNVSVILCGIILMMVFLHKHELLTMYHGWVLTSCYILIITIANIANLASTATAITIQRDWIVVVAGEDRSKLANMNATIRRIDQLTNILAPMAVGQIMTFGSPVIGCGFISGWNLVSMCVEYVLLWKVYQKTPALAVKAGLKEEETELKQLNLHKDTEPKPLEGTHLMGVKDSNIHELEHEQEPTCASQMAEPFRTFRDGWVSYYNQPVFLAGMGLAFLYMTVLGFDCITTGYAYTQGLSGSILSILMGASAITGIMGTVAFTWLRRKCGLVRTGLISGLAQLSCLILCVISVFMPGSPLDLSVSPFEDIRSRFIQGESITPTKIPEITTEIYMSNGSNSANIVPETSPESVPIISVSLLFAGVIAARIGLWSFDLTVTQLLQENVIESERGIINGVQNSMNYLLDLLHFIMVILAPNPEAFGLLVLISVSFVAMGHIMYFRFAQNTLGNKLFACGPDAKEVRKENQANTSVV
Kind of test: Biological in-vitro ferroportin internalization assay (luciferase reporter). It is filed as cell-based. The following applies: average pEC50; stably-transfected CHO cell line expressing human ferroportin tagged to a luciferase reporter; 6 h incubation with test compound. The gist of the method: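 Stably transfected CHO cells expressing luciferase-tagged human ferroportin, plated 24 h with ferric ammonium citrate and induced with doxycycline for 24 h. Compounds incubated 6 h, then luciferase activity measured by Nano-Glo; average pEC50 reported.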
As for `COc1ccc(NC(=O)[C@@H](C)N(C)c2nc(-c3cc(OCCO)ccn3)nc3c2CCC3)cn1` [Compound 309, (2R)-2-({2-[4-(2-hydroxyethoxy)pyridin-2-yl]-5H,6H,7H-cyclopenta[d]pyrimidin-4-yl}(methyl)amino)-N-(6-methoxypyridin-3-yl)propanamide], the pEC50 is given as 8.1.

In the case of `COc1ccc2c(c1)CCN2C(=O)CN(C)c1nc(-c2cc(OCCO)ccn2)nc2c1CCC2` [Compound 335, 2-({2-[4-(2-hydroxyethoxy)pyridin-2-yl]-5H,6H,7H-cyclopenta[d]pyrimidin-4-yl}(methyl)amino)-1-(5-methoxy-2,3-dihydro-1H-indol-1-yl)ethan-1-one], the pEC50 turned out to be 8.4.

`CN(CC(=O)NC1CCCOC1)c1nc(-c2ccccn2)nc2c1CCC2` (stereo not shown) [Compound 26, 2-{methyl[2-(pyridin-2-yl)-5H,6H,7H-cyclopenta[d]pyrimidin-4-yl]amino}-N-(oxan-3-yl)acetamide] had a pEC50 of 6.6.

Molecule `CN(CC(=O)NC(C)(C)C)c1nc(-c2cc(O[C@@H]3CCN(CCF)C3)ccn2)nc2c1CCC2` [Compound 497, N-tert-butyl-2-{[2-(4-{[(3R)-1-(2-fluoroethyl)pyrrolidin-3-yl]oxy}pyridin-2-yl)-5H,6H,7H-cyclopenta[d]pyrimidin-4-yl](methyl)amino}acetamide] returned a pEC50 of 8.2.

`C[C@H](C(=O)NC(C)(C)C)N(C)c1nc(-c2cc(O[C@@H]3CCN(C)C3)ccn2)nc2c1CCC2` [Compound 503, (2R)—N-tert-butyl-2-{methyl[2-(4-{[(3R)-1-methylpyrrolidin-3-yl]oxy}pyridin-2-yl)-5H,6H,7H-cyclopenta[d]pyrimidin-4-yl]amino}propanamide]: the pEC50 is listed as 8.5.

`CN(CC(=O)NC1(C(F)(F)F)CC1)c1nc(-c2ccccn2)nc2c1CCC2` [Compound 98, 2-{methyl[2-(pyridin-2-yl)-5H,6H,7H-cyclopenta[d]pyrimidin-4-yl]amino}-N-[1-(trifluoromethyl)cyclopropyl]acetamide] registered a pEC50 of 7.

The molecule `CN(Cc1ncn(-c2cccc(F)c2)n1)c1nc(-c2cc(OCCO)ccn2)nc2c1CCC2` [Compound 351, 2-({2-[4-({[1-(3-fluorophenyl)-1H-1,2,4-triazol-3-yl]methyl}(methyl)amino)-5H,6H,7H-cyclopenta[d]pyrimidin-2-yl]pyridin-4-yl}oxy)ethan-1-ol] showed a pEC50 of 7.6.

Turning to `CN(CC(=O)NC(C)(C)C)c1nc(-c2cc(OCCO)ccn2)nc2c1CCC2` [Compound 44, N-tert-butyl-2-({2-[4-(2-hydroxyethoxy)pyridin-2-yl]-5H,6H,7H-cyclopenta[d]pyrimidin-4-yl}(methyl)amino)acetamide], the negative logarithm of the EC50 (pEC50) is listed as 7.9.

With `CSc1ccnc(-c2nc3c(c(N(C)CC(=O)NC(C)(C)C)n2)CCC3)c1` [Compound 498, N-tert-butyl-2-[methyl({2-[4-(methylsulfanyl)pyridin-2-yl]-5H,6H,7H-cyclopenta[d]pyrimidin-4-yl})amino]acetamide], the pEC50 is recorded as 7.5.

With `COc1ccc(NC(=O)CN(C)c2nc(-c3cc4ccncc4cn3)nc3c2CCC3)cn1` [Compound 268, N-(6-methoxypyridin-3-yl)-2-{methyl[2-(2,7-naphthyridin-3-yl)-5H,6H,7H-cyclopenta[d]pyrimidin-4-yl]amino}acetamide], the pEC50 is listed as 6.

In turn, `CN(CC(=O)NCc1ccccn1)c1nc(-c2ccccn2)nc2c1CCC2` [Compound 38, 2-{methyl[2-(pyridin-2-yl)-5H,6H,7H-cyclopenta[d]pyrimidin-4-yl]amino}-N-[(pyridin-2-yl)methyl]acetamide] yielded a pEC50 of 6.6.

`CCn1cncc1-c1nc2c(c(N(C)CC(=O)NC(C)(C)C)n1)CCC2` [Compound 194, N-tert-butyl-2-{[2-(1-ethyl-1H-imidazol-5-yl)-5H,6H,7H-cyclopenta[d]pyrimidin-4-yl](methyl)amino}acetamide] gave a pEC50 of 5.4.

In the case of `Cc1ccc(NC(=O)CN(C)c2nc(-c3cc(OC4COC4)ccn3)nc3c2CCC3)cc1` [Compound 326, 2-[methyl({2-[4-(oxetan-3-yloxy)pyridin-2-yl]-5H,6H,7H-cyclopenta[d]pyrimidin-4-yl})amino]-N-(4-methylphenyl)acetamide], the pEC50 is 7.9.

In turn, `COc1ccnc(-c2nc3c(c(N(C)[C@H](C)C(=O)NC4CCCCC4)n2)CCC3)c1` [Compound 119, (2R)—N-cyclohexyl-2-{[2-(4-methoxypyridin-2-yl)-5H,6H,7H-cyclopenta[d]pyrimidin-4-yl](methyl)amino}propanamide] registered a pEC50 of 7.7.

In the case of `COc1ccnc(-c2nc3c(c(N(C)CC(=O)N[C@@H](C)CO)n2)CCC3)c1` [Compound 459, N-[(2S)-1-hydroxypropan-2-yl]-2-{[2-(4-methoxypyridin-2-yl)-5H,6H,7H-cyclopenta[d]pyrimidin-4-yl](methyl)amino}acetamide], the pEC50 is reported as 7.3.

`COc1ccc(NC(=O)CN(C)c2nc(-c3cn(C)cn3)nc3c2CCC3)cn1` [Compound 201, N-(6-methoxypyridin-3-yl)-2-{methyl[2-(1-methyl-1H-imidazol-4-yl)-5H,6H,7H-cyclopenta[d]pyrimidin-4-yl]amino}acetamide] displayed a pEC50 of 7.4.

As to `C[C@H](C(=O)NC1CCCCC1)N(C)c1nc(-c2cn(C)cn2)nc2c1CCC2` [Compound 118, (2R)—N-cyclohexyl-2-{methyl[2-(1-methyl-1H-imidazol-4-yl)-5H,6H,7H-cyclopenta[d]pyrimidin-4-yl]amino}propanamide], the pEC50 came out at 7.8.

With `CC(=O)NCCOc1ccnc(-c2nc3c(c(N(C)CC(=O)Nc4cccc(F)c4)n2)CCC3)c1` [Compound 356, 2-({2-[4-(2-acetamidoethoxy)pyridin-2-yl]-5H,6H,7H-cyclopenta[d]pyrimidin-4-yl}(methyl)amino)-N-(3-fluorophenyl)acetamide], the pEC50 was 8.3.

As for `C[C@H](C(=O)NC(C)(C)C)N(C)c1nc(-c2cc3cn[nH]c3cn2)nc2c1CCC2` [Compound 183, (2R)—N-tert-butyl-2-[methyl(2-{1H-pyrazolo[3,4-c]pyridin-5-yl}-5H,6H,7H-cyclopenta[d]pyrimidin-4-yl)amino]propanamide], the pEC50 stood at 8.

`CN1CCN(C(=O)CN(C)c2nc(-c3cc4ccccc4cn3)nc3c2CCC3)CC1` [Compound 256, 2-{[2-(isoquinolin-3-yl)-5H,6H,7H-cyclopenta[d]pyrimidin-4-yl](methyl)amino}-1-(4-methylpiperazin-1-yl)ethan-1-one] returned a pEC50 of 6.6.

`CN(C)CCOc1ccnc(-c2nc3c(c(N(C)CC(=O)N[C@@H]4CCOC4)n2)CCC3)c1` [Compound 424, 2-[(2-{4-[2-(dimethylamino)ethoxy]pyridin-2-yl}-5H,6H,7H-cyclopenta[d]pyrimidin-4-yl)(methyl)amino]-N-[(3R)-oxolan-3-yl]acetamide] had a pEC50 of 7.

`C[C@H](C(=O)NC(C)(C)C)N(C)c1nc(-c2cc(OCCO)ccn2)nc2c1CCC2` [Compound 311, (2R)-N-tert-butyl-2-({2-[4-(2-hydroxyethoxy)pyridin-2-yl]-5H,6H,7H-cyclopenta[d]pyrimidin-4-yl}(methyl)amino)propanamide] yielded a pEC50 of 8.4.

Molecule `CN(CC(=O)Nc1ccc2cccnc2c1)c1nc(-c2ccccn2)nc2c1CCC2` [Compound 21, 2-{methyl[2-(pyridin-2-yl)-5H,6H,7H-cyclopenta[d]pyrimidin-4-yl]amino}-N-(quinolin-7-yl)acetamide] gave a pEC50 of 6.9.

In the case of `CN(C)C(=O)COc1ccnc(-c2nc3c(c(N(C)CC(=O)NC(C)(C)C)n2)CCC3)c1` [Compound 403, 2-{[2-(4-{[(tert-butylcarbamoyl)methyl](methyl)amino}-5H,6H,7H-cyclopenta[d]pyrimidin-2-yl)pyridin-4-yl]oxy}-N,N-dimethylacetamide], the pEC50 was found to be 7.6.

`COc1ccc2cnc(-c3nc4c(c(N(C)CC(=O)NC(C)(C)C)n3)CCC4)cc2c1` [Compound 261, N-tert-butyl-2-{[2-(6-methoxyisoquinolin-3-yl)-5H,6H,7H-cyclopenta[d]pyrimidin-4-yl](methyl)amino}acetamide] displayed a pEC50 of 7.6.

`C[C@@H]1OC[C@@H]1Oc1ccnc(-c2nc3c(c(N(C)CC(=O)NC(C)(C)C)n2)CCC3)c1` (racemic) [Compound 332, N-tert-butyl-2-{methyl[2-(4-{[(2S,3S)-2-methyloxetan-3-yl]oxy}pyridin-2-yl)-5H,6H,7H-cyclopenta[d]pyrimidin-4-yl]amino}acetamide] showed a pEC50 of 7.8.

With `COc1ccnc(-c2nc3c(c(N(C)CC(=O)Nc4cncnc4)n2)CCC3)c1` [Compound 178], the pEC50 turned out to be 7.2.

In the case of `CN(CC(=O)NC(C)(C)C)c1nc(-c2cn(CCO)cn2)nc2c1CCC2` [Compound 195, N-tert-butyl-2-({2-[1-(2-hydroxyethyl)-1H-imidazol-4-yl]-5H,6H,7H-cyclopenta[d]pyrimidin-4-yl}(methyl)amino)acetamide], the pEC50 came out at 6.9.
